For data set [1], the system named is triplex. The conditions noted are these: 15 μM colorant; cited from earlier work.
The test system of data set [2] is human HeLa tumoral line. Description: Antiproliferative effect / cytotoxicity on HeLa cells (Cell Titer 96 Aqueous One Solution). It counts as cell-based. As for the experimental part: Cells of cancer lines are incubated for 3 days in the presence of different concentrations of compound 1.
These cells are cultured in a MEM (Life Technologies) medium containing 10% of decomplemented foetal calf serum, glutamine, nonessential amino acids (1%) and antibiotics (penicillin and streptomycin). The ligand is diluted in the culture medium after adhesion of the cells on 96-well plates (2500 cells per well). The number of cells is estimated by the “Cell Titer 96 Aqueous One Solution Cell Proliferation Assay” kit from Promega. Each measurement was carried out in quadruplicate. The cells are left in the presence of the compound for 1 to 4 days, then counted.

The test system of data set [3] is human telomerase. Description: Telomerase inhibition, TRAP test with HL60 cell extract. It is filed as biochemical. The conditions noted are these: for IC50: TRAP test, HL60 cell lysate as source of telomerase; for in vitro inhibition of the telomerase (FIG. 3A, gel of elongation products): tested at 0.1, 1 and 10 μM.
Data set [4] has as its system G-quadruplex (fluo-GGGTTAGGGTTAGGGTTAGGG-tamra oligonucleotide, SEQ ID No. 1). The experiment in a line: G-quadruplex stabilization, Tm in fluorescence (FRET method). It is filed as binding. The conditions noted are these: 1 μM colorant; 0.1 M LiCl 10 mM cacodylate buffer pH 7.6; 0.2 μM oligonucleotide. The method, then: All the experiments were carried out in a 10 mM sodium cacodylate buffer of pH 7.6 containing 0.1 M of lithium chloride (or sodium chloride). The absence of fluorescent contamination in the buffer was verified beforehand. The fluorescent oligonucleotide is added at the final concentration of 0.2 μM.
The identification of G-quartets ligands was carried out by fluorescence according to the FRET (Fluorescence Resonance Energy Transfer) method which corresponds to a dipole-dipole resonance interaction between two molecules close to each other, one of which, the donor, transfers its excitation energy to the other molecule, or acceptor. The formation of an intramolecular G-quartet structure must bring the 2 chromophores close enough to be able to observe a transfer of energy.
All the fluorescence measurements were carried out on a Spex Fluorolog DM1B apparatus, using an excitation line width of 1.8 nm and an emission line width of 4.5 nm. The specimens are placed in a micro quartz dish measuring 0.2×1 cm. The temperature of the specimen is controlled by an external water bath. The single oligonucleotide was analysed at 20, 30, 40, 50, 60, 70 and 80° C. The emission spectra are recorded using an excitation wavelength of 470 nm. The excitation spectra are recorded using either 515 nm, or 588 nm as emission wavelength. The spectra are adjusted to take account of the response of the instrument by reference curves. A substantial extinction (80-90%) of the fluorescence of the fluorescein at ambient temperature is observed, in keeping with an intramolecular folding of the oligonucleotide at 20° C. in the form of a G-quadruplex, which induces a juxtaposition of its 5′ and 3′ ends, respectively bound to the fluorescein and to the tetramethylrhodamine (tamra in short). This juxtaposition involves a phenomenon already described, extinction of fluorescence of the donor by FRET, and a sensitized emission of the acceptor.
A stock solution of oligonucleotide at the strand concentration of 0.2 μM in a 0.1 M LiCl 10 mM cacodylate buffer of pH 7.6 is prepared beforehand, heated briefly to 90° C. and cooled slowly to 20° C., then distributed by aliquots of 600 μl in the fluorescence dishes. 3 μl of water (for the control) or 3 μl of the product to be tested (stock at 200 μM, final concentration 1 μm) are then added and mixed. The specimens are then left to incubate for at least 1 hour at 20° C. before each measurement.
Each experiment allows only a single specimen to be measured. This is firstly incubated at an initial temperature of 20° C., raised to 80° C. in 40 minutes, left for 5 minutes at 80° C., then cooled to 20° C. in 62 minutes. During this time, the fluorescence is measured simultaneously at two emission wavelengths (515 nm and 588 nm) using 470 nm as excitation wavelength. A measurement is carried out every 30 seconds. The temperature of the water bath is recorded in parallel, and the fluorescence profile as a function of the temperature is reconstituted from these values. The fluorescence profiles are then standardized between 20° C. and 80° C., and the temperature for which the emission intensity at 515 nm is the average of those and high and low temperature is called Tm. In these conditions, the Tm of the reference specimen without addition of product is 44° C. in a lithium chloride buffer. This temperature is increased to more than 55° C. in the sodium chloride buffer. The addition of a compound stabilizing the G-quadruplex induces an increase in the Tm. This increase is considered significant if it is greater than 3° C.
In the tests for which the results are reported below, two oligonucleotides were used of sequences SEQ ID No. 1 and SEQ ID No. 2, replaced at the 5′ end by a fluorescein (fluo in short) group and at 3′ end by a tamra group, conforming to the following sequences: […]

Where “and” joins values, the source holds several entries; their conditions need not be identical. Equal entries are not always repeated.

In general, IC50 refers to the concentration that gives 50% inhibition. By mortality is commonly meant the share of the test organisms that died. A low value points to a weak lethal effect.

Consider `CCCNCc1ccc2nc3ccc4cc5cc(CNCCC)ccc5nc4c3cc2c1` [Compound 1], for which the Δ Tm triplex in data set [1] was 20 °C. The IC50 in data set [2] (HeLa cells in the presence of compound for 24 hours) stood at 500 nM; in data set [3], 300 nM. Also, the mortality in data set [2] (HeLa cells incubated for 96 hours, 0.5 micromolars) was 100%. Further, in data set [2] (HeLa cells, concentrations of 5 micromolars or more), the mortality rate is recorded as 100%. For the same molecule, the “in vitro inhibition of the telomerase (FIG. 3A, gel of elongation products)” value in data set [3] was “disappearance of the bands with less mobility”.

Regarding `CCCNCc1cc2nc3ccccc3cc2c2cc3ccccc3nc12` [Compound 2], in data set [4], the “Δ Tm G4(FRET)” value was “+5.5 °C”. Besides, the Δ Tm triplex in data set [1] was 37 °C. Further, in data set [3], the IC50 was 1400 nM and 1450 nM; the “in vitro inhibition of the telomerase (FIG. 3A, gel of elongation products)” value was “inhibits the telomerase”.

In the case of `CN(C)CCCNCc1cc2nc3ccccc3cc2c2cc3ccccc3nc12` [Compound 3], the Δ Tm triplex in data set [1] is 44 °C. This molecule yielded an IC50 in data set [3] of 750 nM.

Turning to `CCCNCc1ccc2nc3ccc4nc5ccc(CNCCC)cc5cc4c3cc2c1` [Compound 4], in data set [1], the Δ Tm triplex was 18 °C. Also, in data set [3], the IC50 is 1000 nM.

Regarding `CCCNCc1ccc2nc3c(ccc4cc5cc(CNCCC)ccc5nc43)cc2c1` [Compound 5], in data set [4], the “Δ Tm G4(FRET)” value was “+12.5 °C”. In addition, the Δ Tm triplex in data set [1] is 7 °C. Further, in data set [3], the IC50 is 500 nM.

`CN(C)CCCNCc1ccc2nc3c(ccc4cc5cc(CNCCCN(C)C)ccc5nc43)cc2c1` [Compound 6]: in data set [1], the Δ Tm triplex is 16 °C. 900 nM corresponded to half-maximal inhibition in data set [3] (IC50).

On to `c1ccc2nc3cc(CNCCN4CCCCC4)c4nc5ccccc5cc4c3cc2c1` [Compound 7], for which, in data set [4], the “Δ Tm G4(FRET)” value was “+2.5 °C”. Moreover, the IC50 in data set [3] stood at 2000 nM.

For the molecule `c1cn(CCCNCc2ccc3nc4ccc5cc6cc(CNCCCn7ccnc7)ccc6nc5c4cc3c2)cn1` [Compound 8], in data set [4], the “Δ Tm G4(FRET)” value is “+15 °C”. The same molecule came in with an IC50 in data set [3] of 460 nM.

For `c1nc(CCNCc2ccc3nc4ccc5cc6cc(CNCCc7c[nH]cn7)ccc6nc5c4cc3c2)c[nH]1` [Compound 9], the “Δ Tm G4(FRET)” value in data set [4] was “+10.5 °C”. Also, the IC50 in data set [3] was found to be 950 nM.

For the molecule `c1ccc2c(CCNCc3ccc4nc5ccc6cc7cc(CNCCc8c[nH]c9ccccc89)ccc7nc6c5cc4c3)c[nH]c2c1` [Compound 10], in data set [4], the “Δ Tm G4(FRET)” value was “+8.4 °C”.

As to `NCCCCNCc1ccc2nc3ccc4cc5cc(CNCCCCN)ccc5nc4c3cc2c1` [Compound 11], the “Δ Tm G4(FRET)” value in data set [4] is “+18 °C”. Besides, the IC50 in data set [3] turned out to be 130 nM.

On to `c1cc2nc3ccc4cc5cc(CNCCCN6CCOCC6)ccc5nc4c3cc2cc1CNCCCN1CCOCC1` [Compound 12], for which the “Δ Tm G4(FRET)” value in data set [4] was “+7 °C”. In data set [3], the midpoint of inhibition, the IC50, lay at 480 nM.

`CN(C)CCCNCc1ccc2nc3ccc4cc5cc(CNCCCN(C)C)ccc5nc4c3cc2c1` [Compound 13]: the “Δ Tm G4(FRET)” value in data set [4] was “+19.7 °C”. In data set [3], this molecule registered an IC50 of 28 nM.

For “tetra [N-methyl pyridyl]porphyrin [reference compound]”, the “Δ Tm G4(FRET)” value in data set [4] was “approximately 4 °C”.

The values are drawn from patent publication US20040034023A1, “Use of polycyclic aromatic compounds for making medicines capable of inhibiting telomerase” (priority 2000, published 2004).
